# Molecular target: C-C chemokine receptor type 5 (Homo sapiens, UniProt P51681)
# Test: Antagonist activity at Homo sapiens (human) CCR5 receptor
# Sequence of C-C chemokine receptor type 5 (P51681 whole entry): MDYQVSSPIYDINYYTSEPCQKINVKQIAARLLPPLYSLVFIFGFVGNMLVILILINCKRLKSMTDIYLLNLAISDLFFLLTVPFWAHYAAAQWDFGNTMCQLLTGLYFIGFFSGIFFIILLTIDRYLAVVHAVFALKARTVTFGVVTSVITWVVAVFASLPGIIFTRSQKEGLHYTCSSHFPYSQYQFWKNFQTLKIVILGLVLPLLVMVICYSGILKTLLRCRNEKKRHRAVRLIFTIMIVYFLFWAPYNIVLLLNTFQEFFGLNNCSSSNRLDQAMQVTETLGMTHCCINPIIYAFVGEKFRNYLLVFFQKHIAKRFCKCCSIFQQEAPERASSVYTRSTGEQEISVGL
row,SMILES,IC50
1,Brc1ccc(COc2ccc(Br)cc2N2CCOCC2)cc1,1000 nM
2,N=C(N)N/N=C/c1cc(Br)ccc1OCc1cccc(Cl)c1,839 nM
3,Cc1ccc(NC(=O)NCC2(O)CCC(Cc3cc(Br)ccc3OCc3ccc(Cl)cc3)CC2)cc1 (stereo not drawn),1500 nM
4,O=C(NCC1(O)CCC(Cc2cc(Br)ccc2OCc2ccc(Cl)cc2)CC1)Nc1c(F)cccc1F (stereo not drawn),320 nM
5,Cc1cc(Br)cc(C)c1NC(=O)NCC1(O)CCC(Cc2cc(Br)ccc2OCc2ccc(Cl)cc2)CC1 (stereo not drawn),170 nM
6,Cc1cc(C)c(NC(=O)NCC2(O)CCC(Cc3cc(Br)ccc3OCc3ccc(Cl)cc3)CC2)c(C)c1 (stereo not drawn),100 nM
7,CCc1cccc(CC)c1NC(=O)NCC1(O)CCC(Cc2cc(Br)ccc2OCc2ccc(Cl)cc2)CC1 (stereo not drawn),11 nM
8,N=C(N)N/N=C/c1cc(Br)ccc1OCc1ccc(F)c(F)c1,3700 nM
9,CCN(CC)c1cc(Br)ccc1OCc1ccc(Cl)cc1,1400 nM
10,N=C(N)N/N=C/c1cc(Br)ccc1OCc1ccc(Cl)cc1,600 nM

# The remaining compounds from weak to strong by IC50, led by results:
row,IC50,SMILES
1,600 nM,CN(C)c1cc(Br)ccc1OCc1ccc(Cl)cc1
2,450 nM,O=C(NCC1(O)CCC(Cc2cc(Br)ccc2OCc2ccc(Cl)cc2)CC1)Nc1c(Cl)cc(Cl)cc1Cl (stereo not drawn)
3,400 nM,CC/C(=N\NC(=N)N)c1cc(Br)ccc1OCc1ccc(Cl)cc1
4,210 nM,CC1CCN(CC2(O)CCN(Cc3cc(Br)ccc3OCc3ccc(Cl)cc3)CC2)CC1
5,92.9 nM,C/C(=N\NC(=N)N)c1cc(Br)ccc1OCc1ccc(C#N)cc1
6,57 nM,O=C(NCC1(O)CCC(Cc2cc(Br)ccc2OCc2ccc(Cl)cc2)CC1)Nc1c(Cl)cccc1Cl (stereo not drawn)
7,47 nM,Cc1cccc(C)c1NC(=O)NCC1(O)CCC(Cc2cc(Br)ccc2OCc2ccc(Cl)cc2)CC1 (stereo not drawn)
8,35 nM,CC(C)c1cccc(C(C)C)c1NC(=O)NCC1(O)CCC(Cc2cc(Br)ccc2OCc2ccc(Cl)cc2)CC1 (stereo not drawn)
